According to the NIST ThermoML archive (doi:10.1016/j.jct.2011.08.028):

Tests used:
[1] = refractive index (Na D-line) (dimensionless); xn = mol fraction of the nth substance listed; conditions: 298.15 K, 101 kPa, Liquid, Standard Abbe refractometry
[2] = xn = mol fraction of the nth substance listed; conditions: 298.15 K, 101 kPa, Liquid; for speed of sound: Sing-around technique in a fixed-path interferometer; for mass density: Vibrating tube method
[3] = Liquid; for speed of sound: Sing-around technique in a fixed-path interferometer; for mass density: Vibrating tube method; for viscosity: Capillary tube (Ostwald / Ubbelohde) method
[4] = refractive index (Na D-line) (dimensionless); conditions: 101.33 kPa, Liquid, Standard Abbe refractometry

CO [methanol] + CCCn1cc[n+](C)c1.O=S(=O)([N-]S(=O)(=O)C(F)(F)F)C(F)(F)F
x1 = 1
Conditions | mass density [kg/m3] | refractive index | speed of sound [m/s]
[1] | – | 1.32648 | –
[2] | 786.59 | – | 1103

CCCO [propan-1-ol] + CCCn1cc[n+](C)c1.O=S(=O)([N-]S(=O)(=O)C(F)(F)F)C(F)(F)F
x1 = 1
Conditions | mass density [kg/m3] | refractive index | speed of sound [m/s]
[1] | – | 1.38307 | –
[2] | 800.09 | – | 1207

CC(C)O [propan-2-ol] + CCCn1cc[n+](C)c1.O=S(=O)([N-]S(=O)(=O)C(F)(F)F)C(F)(F)F
x1 = 1
Conditions | mass density [kg/m3] | refractive index | speed of sound [m/s]
[1] | – | 1.375 | –
[2] | 780.98 | – | 1139

CCCn1cc[n+](C)c1.O=S(=O)([N-]S(=O)(=O)C(F)(F)F)C(F)(F)F
[3], 101.33 kPa
Conditions | mass density [kg/m3] | speed of sound [m/s] | viscosity [mPa·s]
293.15 K | 1479.39 | 1243 | –
298.15 K | 1474.44 | 1232 | 43.7
303.15 K | 1469.5 | 1221 | 35.68
308.15 K | 1464.58 | 1210 | 29.51
313.15 K | 1459.67 | 1199 | 24.77
318.15 K | 1454.78 | 1188 | 21.01
323.15 K | 1449.91 | 1178 | 18.04
328.15 K | 1445.06 | 1168 | 15.59
333.15 K | 1440.23 | 1157 | 13.63
338.15 K | 1435.42 | 1147 | 12.02
343.15 K | 1430.62 | 1137 | 10.66

[4]
Conditions | refractive index
293.15 K | 1.42669
298.15 K | 1.42525
303.15 K | 1.42378
308.15 K | 1.42224
313.15 K | 1.42076
318.15 K | 1.41926
323.15 K | 1.41776
328.15 K | 1.41625
333.15 K | 1.41479
338.15 K | 1.41334
343.15 K | 1.41185

CCO [ethanol] + CCCn1cc[n+](C)c1.O=S(=O)([N-]S(=O)(=O)C(F)(F)F)C(F)(F)F
x1 = 1
Conditions | mass density [kg/m3] | refractive index | speed of sound [m/s]
[1] | – | 1.35929 | –
[2] | 785.33 | – | 1144

CCCn1cc[n+](C)c1.O=S(=O)([N-]S(=O)(=O)C(F)(F)F)C(F)(F)F + CO
Conditions | mass density, [2] [kg/m3] | refractive index, [1] | speed of sound, [2] [m/s]
x2 = 0 | 1474.44 | 1.42525 | 1232
x2 = 0.099 | 1463.12 | 1.4237 | 1228
x2 = 0.2012 | 1449.69 | 1.42185 | 1223
x2 = 0.2973 | 1434.29 | 1.41964 | 1218
x2 = 0.4068 | 1411.9 | 1.41652 | 1211
x2 = 0.5067 | 1385.1 | 1.41274 | 1203
x2 = 0.601 | 1351.31 | 1.40806 | 1192
x2 = 0.6936 | 1305.17 | 1.40193 | 1179
x2 = 0.7948 | 1228.8 | 1.39113 | 1159
x2 = 0.9009 | 1085.51 | 1.37097 | 1129
x2 = 0.9499 | 972.1 | 1.35417 | 1115

CO [methanol]
[3], 298.15 K, 101 kPa
Conditions | mass density [kg/m3] | speed of sound [m/s]
– | 786.59 | 1103

Conditions | refractive index
[4], 298.15 K | 1.32648

CCO [ethanol]
[3], 298.15 K, 101 kPa
Conditions | mass density [kg/m3] | speed of sound [m/s]
– | 785.33 | 1144

Conditions | refractive index
[4], 298.15 K | 1.35929
